Test results: the Deep4Chem optical property database
Where “and” joins values, the source holds several entries; their conditions need not be identical. Equal entries are not always repeated.

Test: solvent given as SMILES

Q: Which results are given for `CN(C)c1ccc(/C=C/c2cc[n+](Cc3cc(C[n+]4ccc(/C=C/c5ccc(N(C)C)cc5)cc4)cc(C[n+]4ccc(/C=C/c5ccc(N(C)C)cc5)cc4)c3)cc2)cc1`?
A: emission maximum (in C1COCCO1): 580 nm; emission maximum (in CC(C)O): 607 nm; emission maximum (in CCCCCCCCO): 595 nm; emission maximum (in CCCCO): 608 nm; emission maximum (in CCCO): 611 nm; emission maximum (in CCO): 613 nm; emission maximum (in CO): 618 nm; emission maximum (in CS(C)=O): 627 nm; emission maximum (in ClC(Cl)Cl): 580 nm; emission maximum (in ClCCl): 600 nm

Q: What does the source list for `CCCCCCCCN1c2ccc(C#Cc3ccc(OC)cc3)cc2Sc2cc(C=O)ccc21`?
A: emission maximum (in C1CCOC1): 512 nm; emission maximum (in CC#N): 538 nm; emission maximum (in CCCCCC): 494 nm; emission maximum (in CO): 464 nm; emission maximum (in CS(C)=O): 524 nm; emission maximum (in Cc1ccccc1): 510 nm; emission maximum (in ClC(Cl)Cl): 524 nm

Q: Which results are given for `Cc1cc(=O)oc2cc3c4ccccc4c4ccccc4c3cc12`?
A: emission maximum (in C1CCOC1): 410 nm; emission maximum (in CC#N): 419 nm; emission maximum (in CO): 420 nm; emission maximum (in CS(C)=O): 418 nm; emission maximum (in Cc1ccccc1): 410 nm; emission maximum (in ClC(Cl)Cl): 415 nm

Q: For `CC1(C)c2ccccc2N(c2ccc3c(c2)Oc2ccccc2S3(=O)=O)c2ccccc21`, which emission maximum (in Cc1ccccc1) is on record?
A: 451 nm

Q: What about the emission maximum (in O=P(c1ccccc1)(c1ccccc1)c1ccccc1Oc1ccccc1P(=O)(c1ccccc1)c1ccccc1) of the same molecule?
A: 458 nm

Q: Which emission maximum (in C1CCOC1) does the source give for `CCCCCCc1ccc2c(/C=N/c3cc(/N=C/c4c(O)ccc5cc(CCCCCC)ccc45)cc(/N=C/c4c(O)ccc5cc(CCCCCC)ccc45)c3)c(O)ccc2c1` here?
A: 509 nm

Q: And the emission maximum (in CC#N)?
A: 507 nm

Q: And the emission maximum (in Cc1ccccc1)?
A: 507 nm

Q: And the emission maximum (in ClCCl)?
A: 511 nm

Q: Which emission maximum (in Cc1ccccc1) does the source give for `c1ccc(-c2nc(-c3ccccc3)nc(-c3ccc(-n4c5ccccc5c5cc6c(cc54)c4ccccc4n6-c4ccccc4)cc3)n2)cc1` here?
A: 478 nm

Q: What about the emission maximum (in O=P(c1ccccc1)(c1ccccc1)c1ccc2oc3ccc(P(=O)(c4ccccc4)c4ccccc4)cc3c2c1) of the same molecule?
A: 511 nm

Q: For `C(#Cc1ccncc1)C(C#Cc1ccncc1)=Cc1ccc(C=C(C#Cc2ccncc2)C#Cc2ccncc2)s1`, which emission maximum (in ClC(Cl)Cl) is on record?
A: 587 nm

Q: Which emission maximum (in ClCCl) does the source give for `CCCCN1C(=O)c2cc(Oc3ccc(C(C)(C)C)cc3)c3c4c(Oc5ccc(C(C)(C)C)cc5)cc5c(=O)[nH]/c(=C\c6ccccn6)c6cc(Oc7ccc(C(C)(C)C)cc7)c(c7c(Oc8ccc(C(C)(C)C)cc8)cc(c2c37)C1=O)c4c56` here?
A: 652 nm

Q: Which emission maximum (in ClCCl) does the source give for `F[B-]1(F)OC(/C=C/c2ccccc2)=CC(c2ccccc2)=[O+]1` here?
A: 443 nm

Q: For `Cc1cc2nc3[nH]c(=O)n(C)c(=O)c3nc2cc1C`, which emission maximum (in CC#N) is on record?
A: 436 nm

Q: Which results are given for `CC1=[N+]2C(=C(c3ccc(C#N)cc3)c3ccc(C)n3[B-]2(F)F)C=C1`?
A: emission maximum (in C1CCCCC1): 539 nm; emission maximum (in C1CCOC1): 540 nm; emission maximum (in CC#N): 537 nm; emission maximum (in CCOC(C)=O): 537 nm; emission maximum (in CO): 538 nm; emission maximum (in Cc1ccccc1): 543 nm; emission maximum (in ClC(Cl)Cl): 543 nm

Q: With `CCCCn1c2ccccc2c2ccc3c4cc(-c5ccc(OC)cc5)ccc4n(CCCC)c3c21` as the molecule, how does the emission maximum (in ClC(Cl)Cl) read?
A: 409 nm

Q: For `CC1(C)OB(c2cc3ccc4cc(B5OC(C)(C)C(C)(C)O5)cc5ccc(c2)c3c45)OC1(C)C`, which emission maximum (in Cc1ccccc1) is on record?
A: 400 nm

Q: Which emission maximum (in ClCCl) does the source give for `CCCCN(CCCC)c1ccc(C#Cc2cc(C#Cc3ccc(N(CCCC)CCCC)cc3)c(C#Cc3ccc([N+](=O)[O-])cc3)cc2C#Cc2ccc([N+](=O)[O-])cc2)cc1` here?
A: 552 nm

Q: Which results are given for `N#Cc1ccc(C[C@H](N)C(=O)O)cc1`?
A: emission maximum (in C1CCOC1): 292.44 nm; emission maximum (in CCO): 292.99 nm; emission maximum (in CO): 292.44 nm; emission maximum (in O): 293.54 nm; emission maximum (in O=CO): 294.16 nm

Q: Which results are given for `CCCCCCCN1C(=CC2=C([O-])C(=CC3=[N+](CCCCCCC)c4ccccc4C3(C)C)C2=C(C#N)C#N)Sc2ccccc21`?
A: emission maximum (in C1COCCO1): 709 nm; emission maximum (in CCO): 699 nm; emission maximum (in CN(C)C=O): 702 nm; emission maximum (in ClC(Cl)Cl): 709 nm

Q: For `CC(=O)OCCN1C(=O)c2cccc3c(Oc4ccc(C#N)cc4)ccc(c23)C1=O`, which emission maximum (in ClC(Cl)Cl) is on record?
A: 410 nm

Q: For `CC1=CC(C)=[N+]2C1=C(c1ccc(N(C)C)cc1)c1c(C)cc(C)n1[B-]2(F)F`, which emission maximum (in C1CCOC1) is on record?
A: 513 nm

Q: And the emission maximum (in CC#N)?
A: 508 nm

Q: What about the emission maximum (in CC(=O)C(C)(C)C) of the same molecule?
A: 511 nm

Q: What about the emission maximum (in CC(C)=O) of the same molecule?
A: 510 nm

Q: And the emission maximum (in CCCCCC)?
A: 511 nm

Q: And the emission maximum (in CCOC(C)=O)?
A: 510 nm

Q: And the emission maximum (in CO)?
A: 514 nm and 511 nm

Q: With `CC1=C(Cc2ccccc2)C(C)=[N+]2C1=C(C)c1c(C)c(-c3csc(N4CCOCC4)n3)c(C)n1[B-]2(F)F` as the molecule, how does the emission maximum (in C1CCOC1) read?
A: 620 nm

Q: What about the emission maximum (in C1COCCO1) of the same molecule?
A: 602 nm

Q: What about the emission maximum (in CC#N) of the same molecule?
A: 537 nm

Q: And the emission maximum (in CC(C)O)?
A: 543 nm

Q: What about the emission maximum (in CCO) of the same molecule?
A: 538 nm

Q: And the emission maximum (in CCOC(C)=O)?
A: 545 nm

Q: And the emission maximum (in CN(C)C=O)?
A: 537 nm

Q: What about the emission maximum (in CO) of the same molecule?
A: 539 nm

Q: What about the emission maximum (in CS(C)=O) of the same molecule?
A: 548 nm

Q: What about the emission maximum (in Cc1ccccc1) of the same molecule?
A: 603 nm

Q: And the emission maximum (in ClC(Cl)Cl)?
A: 607 nm

Q: And the emission maximum (in ClCCl)?
A: 535 nm
